# Assay results from patent US10100010B1, “4-methoxy pyrrole derivatives or salts thereof and pharmaceutical composition comprising the same” (Daewoong Pharmaceutical Co., Ltd., priority 2015, dated 2018).
# Counter-ions that a name gives are not always drawn.
# Key:
# [1] = test system: basal gastric acid secretion in pylorus-ligated rats; test: Inhibitory effects on basal gastric acid secretion in pylorus-ligated rats (Shay's rat model); format: in vivo, Sprague Dawley (SD) rats; conditions: 2.0 mg/kg into the duodenum, 5 hours after ligation
# Experimental: Inhibitory effects of the compounds prepared in Examples 2, 8 and 22 on basal gastric acid secretion were measured according to Shay's rat model (Shay, H., et al., 1945, gastroenterology, 5, p 43-61). Male Sprague Dawley (SD) rats (body weight 180-220 g) were divided into 4 groups (n=6-7) and fasted for 18 hours with free access to water. Under isoflurane anesthesia, the abdomens of the rats were incised and then the pylorus was ligated. Immediately after ligation, control group was administered with 2 mL/kg of 0.5% methyl cellulose (MC) aqueous solution into the duodenum, and the other groups were administered with test compounds suspended in 0.5% methyl cellulose (MC) aqueous solution at a dose of 2.0 mg/kg/2 ml. 5 hours after ligation, the test animals were sacrificed, and gastric contents were removed. The removed contents were centrifuged at 4,000×g for 10 minutes and the supernatant was separated to obtain the gastric juice. The amount and pH of the gastric juice were measured and the acidity in the gastric juice was measured by 0.1N NaOH volume (ueq/mL) required for the titration of gastric acid to pH 7.0. Total acid output was measured by multiplying the acidity of the gastric juice by the amount of the gastric juice. % inhibitory activity of test compounds were calculated according to the following equation, and the results are shown in Table 2. % inhibitory activity of test compound=[(total acid output of control group-total acid output of the group treated with test compounds)/total acid output of control group]×100 [Equation 1]
# [2] = test system: indomethacin-induced gastric damage in rats; test: Gastric damage inhibitory activity against indomethacin-induced gastric damage in rats; format: in vivo, Sprague Dawley (SD) rats; conditions: 2.0 mg/kg oral, 1 hour before indomethacin 80 mg/kg
# Experimental: The inhibitory activity against the gastric damage of the compounds prepared in Examples 2 and 8 was measured using indomethacin model (Chiou., Et al., 2005, gastroenterology, 128, p 63-73). Male Sprague Dawley (SD) rats (body weight 180-220 g) was divided into 5 groups (n=10) and fasted for 24 hours with free access to water. Control group was orally administered with 5 mL/kg of 0.5% methyl cellulose (MC) aqueous solution, and the other groups were orally administered with test compounds suspended in 0.5% methyl cellulose (MC) aqueous solution at a dose of 2.0 mg/kg/5 ml. For comparison, the compound of Example 134 (Comparative Example 1) and the compound of Example 165 (Comparative Example 2) in International Patent Publication No. WO 2006/036024 were orally administered at a dose of 2.0 mg/kg/5 ml by suspending 0.5% methylcellulose (MC) aqueous solution, respectively. […] The incised stomach was placed on a fixture, fixed by a fixing pin while spreading out using a forcep and then the gastric damage area was measured. % Inhibitory activity of test compounds was calculated according to the following Equation 2, and the results are shown in Table 3. % Inhibitory activity of test compound=[1−(gastric damage area % of the group treated with test compounds)/(gastric damage area % of control group)]×100 [Equation 2]
# H. pylori = test: Antimicrobial activity against H. pylori, MIC by agar dilution method; format: cell-based; conditions: Helicobacter pylori
# [3] = strain 26695 CHGKG (HPKTCC B3412)
smiles,measurement,setting,value
"CNCc1cn(S(=O)(=O)c2cccc(C(F)(F)F)c2)c(-c2ccccc2F)c1OC [Example 2, hydrochloride]",% inhibitory activity (total acid output),[1],93.5%
same,% inhibitory activity (gastric damage area),[2],91.8%
"CNCc1cn(S(=O)(=O)c2cccc(F)c2)c(-c2ccc(F)cc2F)c1OC.Cl [Example 8, 1-(5-(2,4-difluorophenyl)-1-((3-fluorophenyl)sulfonyl)-4-methoxy-1H-pyrrol-3-yl)-N-methylmethanamine hydrochloride]",% inhibitory activity (total acid output),[1],90.5%
same,% inhibitory activity (gastric damage area),[2],92.2%
same,MIC,H. pylori; strain 45 (HPKTCC B0004),75 µg/mL
same,MIC,H. pylori; strain 51 (HPKTCC B0006),75 µg/mL
same,MIC,H. pylori; strain 52 (HPKTCC B0007),75 µg/mL
same,MIC,H. pylori; strain 92-33-1 (HPKTCC B0182),75 µg/mL
same,MIC,H. pylori; strain 92-82-1 (HPKTCC B0233),75 µg/mL
same,MIC,H. pylori; strain 92-157 (HPKTCC B0152),75 µg/mL
same,MIC,H. pylori; strain 118 (HPKTCC B0017),150 µg/mL
same,MIC,H. pylori; strain 126 (HPKTCC B0020),150 µg/mL
same,MIC,H. pylori; strain 127 (HPKTCC B0021),75 µg/mL
same,MIC,H. pylori; strain 133 (HPKTCC B0023),37.5 µg/mL
same,MIC,H. pylori; strain 134 (HPKTCC B0024),75 µg/mL
same,MIC,H. pylori; strain 138 (HPKTCC B0026),75 µg/mL
same,MIC,H. pylori; strain 156 (HPKTCC B0035),150 µg/mL
same,MIC,H. pylori; strain 159 (HPKTCC B0037),150 µg/mL
same,MIC,H. pylori; strain 164 (HPKTCC B0040),75 µg/mL
same,MIC,H. pylori; strain 183 (HPKTCC B0047),150 µg/mL
same,MIC,H. pylori; strain 193 (HPKTCC B0051),75 µg/mL
same,MIC,H. pylori; strain 198 (HPKTCC B0055),75 µg/mL
same,MIC,H. pylori; strain 205 (HPKTCC B0058),75 µg/mL
same,MIC,H. pylori; strain 210 (HPKTCC B0061),75 µg/mL
same,MIC,H. pylori; strain 221 (HPKTCC B0068),75 µg/mL
same,MIC,H. pylori; strain 228 (HPKTCC B0071),75 µg/mL
same,MIC,H. pylori; strain 235 (HPKTCC B0074),75 µg/mL
same,MIC,H. pylori; strain 236 (HPKTCC B0075),75 µg/mL
same,MIC,H. pylori; strain 302 (HPKTCC B0088),75 µg/mL
same,MIC,H. pylori; strain 26695 (HPKTCC B0100),75 µg/mL
same,MIC,H. pylori; [3],150 µg/mL
same,MIC,H. pylori; strain CH24 (HPKTCC B0508),75 µg/mL
same,MIC,H. pylori; strain CH94 (HPKTCC B0582),37.5 µg/mL
same,MIC,H. pylori; strain CH173 (HPKTCC B0494),75 µg/mL
same,MIC,H. pylori; strain CH175 (HPKTCC B0496),75 µg/mL
same,MIC,H. pylori; strain CH189 (HPKTCC B0498),75 µg/mL
same,MIC,H. pylori; strain CH192 (HPKTCC B0500),75 µg/mL
same,MIC,H. pylori; strain CH272 (HPKTCC B0516),75 µg/mL
same,MIC,H. pylori; strain CH369 (HPKTCC B0522),75 µg/mL
same,MIC,H. pylori; strain CH381 (HPKTCC B0524),75 µg/mL
same,MIC,H. pylori; strain CH498 (HPKTCC B0536),75 µg/mL
same,MIC,H. pylori; strain CH502 (HPKTCC B0537),75 µg/mL
same,MIC,H. pylori; strain CH523 (HPKTCC B0541),75 µg/mL
same,MIC,H. pylori; strain CH541 (HPKTCC B0548),75 µg/mL
same,MIC,H. pylori; strain CH588 (HPKTCC B0556),75 µg/mL
same,MIC,H. pylori; strain CH609 (HPKTCC B0558),75 µg/mL
same,MIC,H. pylori; strain CH612 (HPKTCC B0559),75 µg/mL
same,MIC,H. pylori; strain CH631 (HPKTCC B0560),75 µg/mL
same,MIC,H. pylori; strain CH635 (HPKTCC B0562),75 µg/mL
same,MIC,H. pylori; strain CH674 (HPKTCC B0564),75 µg/mL
same,MIC,H. pylori; strain CH1056 (HPKTCC B0487),75 µg/mL
same,MIC,H. pylori; strain CJH7 (HPKTCC B0606),75 µg/mL
same,MIC,H. pylori; strain CJH8 (HPKTCC B0608),37.5 µg/mL
same,MIC,H. pylori; strain CJH9 (HPKTCC B0610),75 µg/mL
same,MIC,H. pylori; strain CJH10 (HPKTCC B0587),75 µg/mL
same,MIC,H. pylori; strain CJH13 (HPKTCC B0589),75 µg/mL
same,MIC,H. pylori; strain CJH31 (HPKTCC B0594),75 µg/mL
same,MIC,H. pylori; strain CJH33 (HPKTCC B0595),75 µg/mL
same,MIC,H. pylori; strain CJH43 (HPKTCC B0596),75 µg/mL
same,MIC,H. pylori; strain CJH50 (HPKTCC B0599),75 µg/mL
same,MIC,H. pylori; strain G88001 (HPKTCC B0722),75 µg/mL
same,MIC,H. pylori; strain G88007 (HPKTCC B0725),75 µg/mL
same,MIC,H. pylori; strain J99 (HPKTCC B0748),75 µg/mL
same,MIC,H. pylori; strain SS1-P-4′ (HPKTCC B3392),37.5 µg/mL
"CNCc1cn(S(=O)(=O)c2cccc(F)c2)c(-c2c(F)cc(F)cc2F)c1OC.Cl [Example 22, 1-(1-((3-fluorophenyl)sulfonyl)-4-methoxy-5-(2,4,6-trifluorophenyl)-1H-pyrrol-3-yl)-N-methylmethanamine hydrochloride]",% inhibitory activity (total acid output),[1],88.1%
same,MIC,H. pylori; strain 45 (HPKTCC B0004),75 µg/mL
same,MIC,H. pylori; strain 51 (HPKTCC B0006),75 µg/mL
same,MIC,H. pylori; strain 52 (HPKTCC B0007),75 µg/mL
same,MIC,H. pylori; strain 92-33-1 (HPKTCC B0182),75 µg/mL
same,MIC,H. pylori; strain 92-82-1 (HPKTCC B0233),75 µg/mL
same,MIC,H. pylori; strain 92-157 (HPKTCC B0152),75 µg/mL
same,MIC,H. pylori; strain 118 (HPKTCC B0017),75 µg/mL
same,MIC,H. pylori; strain 126 (HPKTCC B0020),75 µg/mL
same,MIC,H. pylori; strain 127 (HPKTCC B0021),75 µg/mL
same,MIC,H. pylori; strain 133 (HPKTCC B0023),75 µg/mL
same,MIC,H. pylori; strain 134 (HPKTCC B0024),75 µg/mL
same,MIC,H. pylori; strain 138 (HPKTCC B0026),75 µg/mL
same,MIC,H. pylori; strain 156 (HPKTCC B0035),75 µg/mL
same,MIC,H. pylori; strain 159 (HPKTCC B0037),75 µg/mL
same,MIC,H. pylori; strain 164 (HPKTCC B0040),75 µg/mL
same,MIC,H. pylori; strain 183 (HPKTCC B0047),75 µg/mL
same,MIC,H. pylori; strain 193 (HPKTCC B0051),75 µg/mL
same,MIC,H. pylori; strain 198 (HPKTCC B0055),75 µg/mL
same,MIC,H. pylori; strain 205 (HPKTCC B0058),75 µg/mL
same,MIC,H. pylori; strain 210 (HPKTCC B0061),75 µg/mL
same,MIC,H. pylori; strain 221 (HPKTCC B0068),75 µg/mL
same,MIC,H. pylori; strain 228 (HPKTCC B0071),75 µg/mL
same,MIC,H. pylori; strain 235 (HPKTCC B0074),75 µg/mL
same,MIC,H. pylori; strain 236 (HPKTCC B0075),75 µg/mL
same,MIC,H. pylori; strain 302 (HPKTCC B0088),75 µg/mL
same,MIC,H. pylori; strain 26695 (HPKTCC B0100),75 µg/mL
same,MIC,H. pylori; [3],150 µg/mL
same,MIC,H. pylori; strain CH24 (HPKTCC B0508),75 µg/mL
same,MIC,H. pylori; strain CH94 (HPKTCC B0582),75 µg/mL
same,MIC,H. pylori; strain CH173 (HPKTCC B0494),75 µg/mL
same,MIC,H. pylori; strain CH175 (HPKTCC B0496),75 µg/mL
same,MIC,H. pylori; strain CH189 (HPKTCC B0498),75 µg/mL
same,MIC,H. pylori; strain CH192 (HPKTCC B0500),75 µg/mL
same,MIC,H. pylori; strain CH272 (HPKTCC B0516),75 µg/mL
same,MIC,H. pylori; strain CH369 (HPKTCC B0522),75 µg/mL
same,MIC,H. pylori; strain CH381 (HPKTCC B0524),75 µg/mL
same,MIC,H. pylori; strain CH498 (HPKTCC B0536),75 µg/mL
same,MIC,H. pylori; strain CH502 (HPKTCC B0537),75 µg/mL
same,MIC,H. pylori; strain CH523 (HPKTCC B0541),75 µg/mL
same,MIC,H. pylori; strain CH541 (HPKTCC B0548),75 µg/mL
same,MIC,H. pylori; strain CH588 (HPKTCC B0556),75 µg/mL
same,MIC,H. pylori; strain CH609 (HPKTCC B0558),75 µg/mL
same,MIC,H. pylori; strain CH612 (HPKTCC B0559),75 µg/mL
same,MIC,H. pylori; strain CH631 (HPKTCC B0560),75 µg/mL
same,MIC,H. pylori; strain CH635 (HPKTCC B0562),75 µg/mL
same,MIC,H. pylori; strain CH674 (HPKTCC B0564),75 µg/mL
same,MIC,H. pylori; strain CH1056 (HPKTCC B0487),75 µg/mL
same,MIC,H. pylori; strain CJH7 (HPKTCC B0606),75 µg/mL
same,MIC,H. pylori; strain CJH8 (HPKTCC B0608),75 µg/mL
same,MIC,H. pylori; strain CJH9 (HPKTCC B0610),75 µg/mL
same,MIC,H. pylori; strain CJH10 (HPKTCC B0587),75 µg/mL
same,MIC,H. pylori; strain CJH13 (HPKTCC B0589),75 µg/mL
same,MIC,H. pylori; strain CJH31 (HPKTCC B0594),75 µg/mL
same,MIC,H. pylori; strain CJH33 (HPKTCC B0595),75 µg/mL
same,MIC,H. pylori; strain CJH43 (HPKTCC B0596),75 µg/mL
same,MIC,H. pylori; strain CJH50 (HPKTCC B0599),75 µg/mL
same,MIC,H. pylori; strain G88001 (HPKTCC B0722),75 µg/mL
same,MIC,H. pylori; strain G88007 (HPKTCC B0725),75 µg/mL
same,MIC,H. pylori; strain J99 (HPKTCC B0748),75 µg/mL
same,MIC,H. pylori; strain SS1-P-4′ (HPKTCC B3392),75 µg/mL
